According to PMC8333425, “Discovery of a dual Ras and ARF6 inhibitor from a GPCR endocytosis screen” (Nature Communications, 2021):

Legend:
Assay in all cases: KINOMEscan kinase binding assay
[1] = molecular target: T1, 384 kinases from the human genome (Homo sapiens, UniProt P00519); conditions: kinase ABL1-phosphorylated (Entrez ABL1)
T1 construct: purchased Eurofin/DiscoverX
Description: (§1) We reasoned that because internalizing AT1R and its targeting to intracellular compartments can support continued MAPK signaling, and since 21 inhibits receptor internalization, it should also impede to some extent ERK1/2 activation. […] Receptor-mediated ERK1/2 signaling can involve upstream kinases such as PKC, BRAF, and MEK1[35],[36]. […] To exclude other kinases potentially involved in ERK1/2 and Akt activation as targets of 21, we ran a kinase binding assay (KINOMEscan™) on 384 kinases from the human genome. Remarkably, a very high selectivity score S(10) of 0.008 was found (Supplementary Data 3).
(§2) The chemical library used for initial screening was from Chembridge DiverSet™ (60,000 compounds), Maybridge HitFinder™ (16,000 compounds), Maybridge (selected, 16,000 compounds), SPECS (selected, 16000 compounds), Microsource Discovery Spectrum (2000 compounds), Biomol (natural products, 500 compounds), Prestwick (commercialized products, 1120 compounds), SIGMA LopacTM (1280 compounds) and internal collection (synthesized at Université de Montréal-IRIC, ~4000 compounds). Compounds were all assigned an Université de Montréal number (UM) for internal use. Screen was performed at IRIC HTS facility. KINOMEscan™ profiling was serviced by Eurofin/DiscoverX (San Diego, USA).
(§3) Description of Additional Supplementary Files […]
(§4) File Name: Supplementary Data 3
(§5) Description: KINOMEscan results. Compound 21’s effect was tested on 384 kinases. Data represent kinases binding to their ligands in presence of 10 µM of 21, as compared to DMSO (100%). Results are from one experiment and represent the average of duplicates. Three kinases (FLT3, KIT, and PDGFRB) out of 384 were more than 90% affected (selectivity score S(10) of 0.008). […]

[2] = molecular target: T2, 384 kinases from the human genome (Homo sapiens, UniProt P07333)
T2 construct: purchased Eurofin/DiscoverX
T2 sequence (P07333 20-972): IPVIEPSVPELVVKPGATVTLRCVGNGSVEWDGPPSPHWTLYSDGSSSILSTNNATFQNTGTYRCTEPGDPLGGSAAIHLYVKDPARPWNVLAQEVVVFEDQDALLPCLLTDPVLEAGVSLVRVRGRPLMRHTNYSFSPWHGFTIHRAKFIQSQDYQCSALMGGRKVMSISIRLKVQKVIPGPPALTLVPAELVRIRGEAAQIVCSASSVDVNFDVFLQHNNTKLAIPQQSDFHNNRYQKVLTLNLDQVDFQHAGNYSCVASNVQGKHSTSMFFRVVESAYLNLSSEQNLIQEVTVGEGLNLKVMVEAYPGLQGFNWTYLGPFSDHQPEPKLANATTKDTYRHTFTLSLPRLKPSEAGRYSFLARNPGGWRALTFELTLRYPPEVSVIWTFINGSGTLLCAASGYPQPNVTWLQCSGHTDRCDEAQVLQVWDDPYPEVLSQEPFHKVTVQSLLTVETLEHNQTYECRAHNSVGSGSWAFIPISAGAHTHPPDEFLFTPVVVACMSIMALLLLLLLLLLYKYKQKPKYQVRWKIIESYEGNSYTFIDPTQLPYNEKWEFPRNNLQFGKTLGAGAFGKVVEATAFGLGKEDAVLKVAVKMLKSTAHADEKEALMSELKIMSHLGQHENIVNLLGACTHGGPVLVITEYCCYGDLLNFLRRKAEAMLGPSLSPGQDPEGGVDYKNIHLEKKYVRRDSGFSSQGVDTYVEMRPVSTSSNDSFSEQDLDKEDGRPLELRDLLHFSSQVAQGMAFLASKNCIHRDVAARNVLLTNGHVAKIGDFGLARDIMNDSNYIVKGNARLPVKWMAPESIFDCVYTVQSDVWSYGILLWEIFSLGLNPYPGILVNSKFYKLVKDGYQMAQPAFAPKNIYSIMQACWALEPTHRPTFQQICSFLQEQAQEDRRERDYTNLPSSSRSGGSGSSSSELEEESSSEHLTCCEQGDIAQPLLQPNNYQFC
Description: as §1, §2, §3, §4, §5

[3] = molecular target: T3, 384 kinases from the human genome (Homo sapiens, UniProt P36507); conditions: kinase MEK2 (Entrez MAP2K2)
T3 construct: purchased Eurofin/DiscoverX
T3 sequence (P36507 whole entry): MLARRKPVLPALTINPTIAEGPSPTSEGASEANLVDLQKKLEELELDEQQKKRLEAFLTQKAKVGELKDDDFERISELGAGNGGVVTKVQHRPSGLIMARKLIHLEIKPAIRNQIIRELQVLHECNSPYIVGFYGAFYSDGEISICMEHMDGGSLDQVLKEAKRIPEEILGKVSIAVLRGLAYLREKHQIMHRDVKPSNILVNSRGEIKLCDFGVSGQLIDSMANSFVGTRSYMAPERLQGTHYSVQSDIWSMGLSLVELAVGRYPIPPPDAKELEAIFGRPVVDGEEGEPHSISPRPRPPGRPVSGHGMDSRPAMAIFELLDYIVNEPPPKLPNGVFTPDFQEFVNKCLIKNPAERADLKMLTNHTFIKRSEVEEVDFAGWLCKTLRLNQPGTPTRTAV
Description: as §1, §2, §3, §4, §5

[4] = molecular target: T4, 384 kinases from the human genome (Homo sapiens, UniProt P36888)
T4 construct: purchased Eurofin/DiscoverX
T4 sequence (P36888 27-993): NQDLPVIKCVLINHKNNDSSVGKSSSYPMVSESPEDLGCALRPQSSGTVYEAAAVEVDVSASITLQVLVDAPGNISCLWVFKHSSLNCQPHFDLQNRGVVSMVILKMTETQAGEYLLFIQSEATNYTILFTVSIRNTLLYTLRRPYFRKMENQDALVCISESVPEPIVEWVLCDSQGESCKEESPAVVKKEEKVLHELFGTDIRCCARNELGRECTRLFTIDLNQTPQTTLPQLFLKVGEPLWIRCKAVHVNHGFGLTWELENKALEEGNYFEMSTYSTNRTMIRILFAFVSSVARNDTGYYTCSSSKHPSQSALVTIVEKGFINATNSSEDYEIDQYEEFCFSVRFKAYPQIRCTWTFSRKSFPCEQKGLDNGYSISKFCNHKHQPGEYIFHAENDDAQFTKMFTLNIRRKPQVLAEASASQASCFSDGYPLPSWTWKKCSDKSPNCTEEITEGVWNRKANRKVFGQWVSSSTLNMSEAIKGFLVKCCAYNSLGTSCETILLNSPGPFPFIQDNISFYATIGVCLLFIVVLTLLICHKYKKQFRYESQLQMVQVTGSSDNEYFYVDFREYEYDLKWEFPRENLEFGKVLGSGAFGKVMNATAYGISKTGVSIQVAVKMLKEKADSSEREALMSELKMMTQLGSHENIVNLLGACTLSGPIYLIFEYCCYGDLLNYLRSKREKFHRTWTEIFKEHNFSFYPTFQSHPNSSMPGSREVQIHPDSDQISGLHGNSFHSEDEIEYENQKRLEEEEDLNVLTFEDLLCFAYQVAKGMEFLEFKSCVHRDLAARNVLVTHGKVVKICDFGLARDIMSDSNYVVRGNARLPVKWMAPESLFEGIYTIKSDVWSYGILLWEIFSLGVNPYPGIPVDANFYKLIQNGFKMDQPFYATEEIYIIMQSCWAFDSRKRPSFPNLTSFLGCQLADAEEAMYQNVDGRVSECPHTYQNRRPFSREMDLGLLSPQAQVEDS
Description: as §1, §2, §3, §4, §5

[5] = molecular target: T5, 384 kinases from the human genome (Homo sapiens, UniProt P51957); conditions: kinase NEK4 (Entrez NEK4)
T5 construct: purchased Eurofin/DiscoverX
Description: as §1, §2, §3, §4, §5

[6] = molecular target: T6, 384 kinases from the human genome (Homo sapiens, UniProt P54646); conditions: kinase AMPK-alpha2 (Entrez PRKAA2)
T6 construct: purchased Eurofin/DiscoverX
Description: as §1, §2, §3, §4, §5

[7] = molecular target: T7, 384 kinases from the human genome (Homo sapiens, UniProt P54756); conditions: kinase EPHA5 (Entrez EPHA5)
T7 construct: purchased Eurofin/DiscoverX
T7 sequence (P54756 25-1037): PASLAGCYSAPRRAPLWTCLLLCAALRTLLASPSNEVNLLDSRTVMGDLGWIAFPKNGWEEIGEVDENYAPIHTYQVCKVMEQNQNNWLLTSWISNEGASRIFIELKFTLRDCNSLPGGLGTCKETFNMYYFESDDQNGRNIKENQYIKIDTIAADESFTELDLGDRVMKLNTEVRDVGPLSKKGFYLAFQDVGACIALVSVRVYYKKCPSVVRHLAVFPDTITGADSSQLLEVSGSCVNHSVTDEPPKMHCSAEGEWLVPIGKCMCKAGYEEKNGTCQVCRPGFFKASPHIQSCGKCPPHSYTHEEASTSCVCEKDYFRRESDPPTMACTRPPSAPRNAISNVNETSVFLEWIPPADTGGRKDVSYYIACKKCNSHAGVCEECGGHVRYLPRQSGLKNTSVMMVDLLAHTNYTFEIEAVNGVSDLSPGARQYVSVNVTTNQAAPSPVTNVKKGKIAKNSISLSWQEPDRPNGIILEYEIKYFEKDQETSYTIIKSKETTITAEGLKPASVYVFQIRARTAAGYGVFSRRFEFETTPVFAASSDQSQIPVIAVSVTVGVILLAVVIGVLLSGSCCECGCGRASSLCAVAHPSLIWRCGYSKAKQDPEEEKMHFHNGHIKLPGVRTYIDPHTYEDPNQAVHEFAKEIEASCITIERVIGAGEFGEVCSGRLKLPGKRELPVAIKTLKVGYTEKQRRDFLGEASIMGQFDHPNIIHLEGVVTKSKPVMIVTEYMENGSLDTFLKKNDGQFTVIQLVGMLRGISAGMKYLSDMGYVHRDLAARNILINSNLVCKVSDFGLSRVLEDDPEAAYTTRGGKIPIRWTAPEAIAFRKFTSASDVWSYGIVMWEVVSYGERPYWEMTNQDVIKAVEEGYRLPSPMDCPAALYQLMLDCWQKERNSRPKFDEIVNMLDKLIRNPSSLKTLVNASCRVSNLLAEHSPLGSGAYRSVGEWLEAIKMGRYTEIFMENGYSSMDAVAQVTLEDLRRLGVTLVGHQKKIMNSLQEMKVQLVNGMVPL
Description: as §1, §2, §3, §4, §5

[8] = molecular target: T8, 384 kinases from the human genome (Homo sapiens, UniProt Q06418); conditions: kinase TYRO3 (Entrez TYRO3)
T8 construct: purchased Eurofin/DiscoverX
Description: as §1, §2, §3, §4, §5

[9] = molecular target: T9, 384 kinases from the human genome (Homo sapiens, UniProt Q13470); conditions: kinase TNK1 (Entrez TNK1)
T9 construct: purchased Eurofin/DiscoverX
Description: as §1, §2, §3, §4, §5

[10] = molecular target: T10, 384 kinases from the human genome (Homo sapiens, UniProt Q13546); conditions: kinase RIPK1 (Entrez RIPK1)
T10 construct: purchased Eurofin/DiscoverX
Description: as §1, §2, §3, §4, §5

[11] = molecular target: T11, 384 kinases from the human genome (Homo sapiens, UniProt Q13557); conditions: kinase CAMK2D (Entrez CAMK2D)
T11 construct: purchased Eurofin/DiscoverX
Description: as §1, §2, §3, §4, §5

[12] = molecular target: T12, 384 kinases from the human genome (Homo sapiens, UniProt Q16513); conditions: kinase PKN2 (Entrez PKN2)
T12 construct: purchased Eurofin/DiscoverX
T12 sequence (Q16513 whole entry): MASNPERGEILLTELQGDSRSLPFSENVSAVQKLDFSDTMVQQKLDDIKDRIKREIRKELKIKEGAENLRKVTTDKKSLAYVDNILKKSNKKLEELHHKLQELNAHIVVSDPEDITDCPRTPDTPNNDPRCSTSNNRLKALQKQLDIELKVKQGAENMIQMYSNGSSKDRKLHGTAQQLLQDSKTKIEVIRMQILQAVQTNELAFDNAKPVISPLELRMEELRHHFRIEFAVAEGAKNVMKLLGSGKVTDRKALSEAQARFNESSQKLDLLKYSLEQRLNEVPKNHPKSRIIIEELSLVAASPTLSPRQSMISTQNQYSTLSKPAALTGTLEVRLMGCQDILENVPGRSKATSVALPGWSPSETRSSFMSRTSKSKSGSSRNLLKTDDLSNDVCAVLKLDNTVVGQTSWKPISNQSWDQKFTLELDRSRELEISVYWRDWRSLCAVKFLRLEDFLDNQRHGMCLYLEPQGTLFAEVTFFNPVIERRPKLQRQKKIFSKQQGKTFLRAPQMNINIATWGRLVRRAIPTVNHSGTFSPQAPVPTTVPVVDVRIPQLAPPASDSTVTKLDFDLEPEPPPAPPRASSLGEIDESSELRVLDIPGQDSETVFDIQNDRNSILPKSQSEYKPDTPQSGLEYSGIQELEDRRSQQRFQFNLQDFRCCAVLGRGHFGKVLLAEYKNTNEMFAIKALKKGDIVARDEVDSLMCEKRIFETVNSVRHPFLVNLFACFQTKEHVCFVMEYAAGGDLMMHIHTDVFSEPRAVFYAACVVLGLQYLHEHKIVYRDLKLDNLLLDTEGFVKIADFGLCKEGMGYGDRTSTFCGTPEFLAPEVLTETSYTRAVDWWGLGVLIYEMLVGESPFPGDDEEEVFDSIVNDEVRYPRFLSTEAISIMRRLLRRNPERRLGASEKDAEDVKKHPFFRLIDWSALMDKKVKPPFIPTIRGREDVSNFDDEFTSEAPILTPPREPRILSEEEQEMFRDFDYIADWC
Description: as §1, §2, §3, §4, §5

[13] = molecular target: T13, 384 kinases from the human genome (Homo sapiens, UniProt Q96D53); conditions: kinase ADCK4 (Entrez ADCK4)
T13 construct: purchased Eurofin/DiscoverX
Description: as §1, §2, §3, §4, §5

[14] = molecular target: T14, 384 kinases from the human genome (Homo sapiens, UniProt Q99640); conditions: kinase PKMYT1 (Entrez PKMYT1)
T14 construct: purchased Eurofin/DiscoverX
T14 sequence (Q99640 whole entry): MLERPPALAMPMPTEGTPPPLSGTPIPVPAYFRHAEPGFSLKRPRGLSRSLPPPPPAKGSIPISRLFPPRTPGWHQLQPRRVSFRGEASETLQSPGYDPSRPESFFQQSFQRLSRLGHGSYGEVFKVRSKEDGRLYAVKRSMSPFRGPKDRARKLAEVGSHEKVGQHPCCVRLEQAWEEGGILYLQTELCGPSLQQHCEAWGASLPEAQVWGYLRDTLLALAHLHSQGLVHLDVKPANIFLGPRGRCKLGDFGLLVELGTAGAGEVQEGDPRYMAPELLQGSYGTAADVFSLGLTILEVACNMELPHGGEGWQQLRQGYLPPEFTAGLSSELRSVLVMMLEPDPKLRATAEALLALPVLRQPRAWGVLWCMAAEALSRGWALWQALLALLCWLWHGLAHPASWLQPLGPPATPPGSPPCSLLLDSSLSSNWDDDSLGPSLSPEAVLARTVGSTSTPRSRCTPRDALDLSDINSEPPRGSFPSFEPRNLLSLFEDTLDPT
Description: as §1, §2, §3, §4, §5

[15] = molecular target: T15, 384 kinases from the human genome (Homo sapiens, UniProt Q9H093); conditions: kinase SNARK (Entrez NUAK2)
T15 construct: purchased Eurofin/DiscoverX
Description: as §1, §2, §3, §4, §5

T1 sequence (P00519 whole entry): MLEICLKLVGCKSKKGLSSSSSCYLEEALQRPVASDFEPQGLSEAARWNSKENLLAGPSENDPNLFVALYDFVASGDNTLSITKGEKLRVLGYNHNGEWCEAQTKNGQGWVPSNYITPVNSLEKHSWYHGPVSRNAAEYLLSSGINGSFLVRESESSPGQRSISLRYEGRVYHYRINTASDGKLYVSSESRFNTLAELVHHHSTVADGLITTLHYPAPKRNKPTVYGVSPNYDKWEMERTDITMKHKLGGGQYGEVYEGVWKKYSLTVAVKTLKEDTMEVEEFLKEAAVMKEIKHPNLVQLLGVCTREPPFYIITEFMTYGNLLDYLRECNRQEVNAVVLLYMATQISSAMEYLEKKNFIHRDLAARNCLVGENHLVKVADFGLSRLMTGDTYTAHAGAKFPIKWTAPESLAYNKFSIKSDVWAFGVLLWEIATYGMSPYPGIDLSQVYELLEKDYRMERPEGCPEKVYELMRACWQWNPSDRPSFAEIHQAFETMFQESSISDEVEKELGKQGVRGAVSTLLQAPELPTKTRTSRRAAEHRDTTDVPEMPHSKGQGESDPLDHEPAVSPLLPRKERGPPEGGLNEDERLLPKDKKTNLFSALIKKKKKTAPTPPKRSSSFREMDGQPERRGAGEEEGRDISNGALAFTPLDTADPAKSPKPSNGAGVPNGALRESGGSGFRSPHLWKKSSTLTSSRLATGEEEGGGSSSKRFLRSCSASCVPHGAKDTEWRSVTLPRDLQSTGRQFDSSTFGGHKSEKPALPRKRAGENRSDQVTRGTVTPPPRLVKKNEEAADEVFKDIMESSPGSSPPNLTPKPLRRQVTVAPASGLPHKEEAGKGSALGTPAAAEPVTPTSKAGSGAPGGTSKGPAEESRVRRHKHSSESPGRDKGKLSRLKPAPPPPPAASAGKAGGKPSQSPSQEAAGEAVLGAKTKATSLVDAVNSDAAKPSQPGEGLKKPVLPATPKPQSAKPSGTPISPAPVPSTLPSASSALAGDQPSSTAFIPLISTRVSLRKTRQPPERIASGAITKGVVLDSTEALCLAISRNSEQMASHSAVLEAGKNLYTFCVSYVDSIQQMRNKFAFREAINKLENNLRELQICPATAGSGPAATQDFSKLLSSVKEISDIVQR

CC(C)C(=O)N1CCN(c2ccc(NC(=O)c3cc4ccccc4o3)cc2Cl)CC1 [Compound 21]
Percent Control [1]: 89% | Percent Control ([2]; kinase CSF1R (Entrez CSF1R)): 73% | Percent Control ([2]; kinase CSF1R-autoinhibited (Entrez CSF1R)): 100% | Percent Control [3]: 76% | FLT3 binding to its ligand affected ([4]; 10 µM of 21, compared to DMSO (100%)): more than 90% | Percent Control ([4]; kinase FLT3 (Entrez FLT3)): 6.6% | Percent Control ([4]; kinase FLT3-autoinhibited (Entrez FLT3)): 71% | Percent Control [5]: 98% | Percent Control [6]: 85% | Percent Control [7]: 100% | Percent Control [8]: 58% | Percent Control [9]: 75% | Percent Control [10]: 76% | Percent Control [11]: 92% | Percent Control [12]: 100% | Percent Control [13]: 77% | Percent Control [14]: 83% | Percent Control [15]: 96%
